This assay relates to Dirofilaria immitis L1 larvae. Nature of the assay: Screening against microfilaria (L1 larvae) of Dirofilaria immitis, survival/motility. The note with it: 72 h, read-out: Ranked D. immitis L1 MED Activity. The class given is in vivo. How it is done:
Example 44. Screening of Compounds Against Microfilaria of Dirofilaria immitis
To evaluate the efficacy of compounds of the disclosure against Dirofilaria immitis, L1 stage larvae were exposed to various concentrations of the compounds to determine survival or paralysis of the larvae. Results are reported as the minimum effective dose (MED), defined as the concentration required to eliminate motility.
To perform the assay, microfilaria of Dirofilaria immitis were added to the wells of a microtiter plate containing buffer and the test compounds in DMSO. Microfilaria exposed to DMSO alone served as controls. An assessment was conducted at 72 hours to determine survival of the microfilaria.

As to `CN(CCN1CCCS1(=O)=O)c1cc(N2CCCC3(CCCCC3)C2)nc(C(F)(F)F)n1` [Compound 11, 2-(2-((6-(2-azaspiro[5.5]undecan-2-yl)-2-(trifluoromethyl)pyrimidin-4-yl)(methyl)amino)ethyl)isothiazolidine 1,1-dioxide], the minimal effective concentration was < 30000 µM.
The figure for `CS(=O)(=O)N1CC2(CC(Nc3cc(N4CCCC5(CCCCC5)C4)nc(C(F)(F)F)n3)C2)C1` [Compound 12, N-(6-(2-azaspiro[5.5]undecan-2-yl)-2-(trifluoromethyl)pyrimidin-4-yl)-2-(methylsulfonyl)-2-azaspiro[3.3]heptan-6-amine] is > 100000 µM; for `CS(=O)(=O)N1CCOC(CN(Cc2ccccc2)c2cc(N3CCCC4(CCCCC4)C3)nc(C(F)(F)F)n2)C1` (stereo not drawn) [Compound 37, N-benzyl-N-((4-(methylsulfonyl)morpholin-2-yl)methyl)-6-(2-azaspiro[5.5]undecan-2-yl)-2-(trifluoromethyl)pyrimidin-4-amine] it is > 100000 µM.
The figure for `CN(CC1CN(S(C)(=O)=O)CCC1(F)F)c1cc(N2CCC(F)(F)C3(CCCCC3)C2)nc(C(F)(F)F)n1` (stereo not drawn) [Compound 22, N-((4,4-difluoro-1-(methylsulfonyl)piperidin-3-yl)methyl)-6-(5,5-difluoro-2-azaspiro[5.5]undecan-2-yl)-N-methyl-2-(trifluoromethyl)pyrimidin-4-amine] is > 100000 µM; for `CN(CC1CN(S(C)(=O)=O)CCS1(=O)=O)c1cc(N2CCS(=O)(=O)C3(CCCCC3)C2)nc(C(F)(F)F)n1` (stereo not drawn) [Compound 29, 4-(6-(methyl((4-(methylsulfonyl)-1,1-dioxidothiomorpholin-2-yl)methyl)amino)-2-(trifluoromethyl)pyrimidin-4-yl)-1-thia-4-azaspiro[5.5]undecane 1,1-dioxide] it is < 30000 µM; for `CN(CC1CN(S(C)(=O)=O)CCS1)c1cc(N2CCOC3(CCCCC3)C2)nc(C(F)(F)F)n1` (stereo not drawn) [Compound 26, N-methyl-N-((4-(methylsulfonyl)thiomorpholin-2-yl)methyl)-6-(1-oxa-4-azaspiro[5.5]undecan-4-yl)-2-(trifluoromethyl)pyrimidin-4-amine] it is < 30000 µM.
As for `CCN(CC1CN(S(C)(=O)=O)CCO1)c1cc(N2CCCC3(CCCCC3)C2)nc(C(F)(F)F)n1` (stereo not drawn) [Compound 38, N-ethyl-N-((4-(methylsulfonyl)morpholin-2-yl)methyl)-6-(2-azaspiro[5.5]undecan-2-yl)-2-(trifluoromethyl)pyrimidin-4-amine], the minimal effective concentration was < 30000 µM.
The figure for `CN(CC1CN(S(C)(=O)=O)CCS1)c1cc(N2CCSC3(CCCCC3)C2)nc(C(F)(F)F)n1` (stereo not drawn) [Compound 30, N-methyl-N-((4-(methylsulfonyl)thiomorpholin-2-yl)methyl)-6-(1-thia-4-azaspiro[5.5]undecan-4-yl)-2-(trifluoromethyl)pyrimidin-4-amine] is < 10000 µM; for `CCS(=O)(=O)N1CCOC(CN(C)c2cc(N3CCOC4(CCCCC4)C3)nc(C(F)(F)F)n2)C1` (stereo not drawn) [Compound 33, N-((4-(ethylsulfonyl)morpholin-2-yl)methyl)-N-methyl-6-(1-oxa-4-azaspiro[5.5]undecan-4-yl)-2-(trifluoromethyl)pyrimidin-4-amine] it is < 10000 µM; for `CN(CC1CN(S(C)(=O)=O)CCO1)c1cc(N2CCCC3(CCC(F)(F)CC3)C2)nc(C(F)(F)F)n1` (stereo not drawn) [Compound 40, 6-(9,9-difluoro-2-azaspiro[5.5]undecan-2-yl)-N-methyl-N-((4-(methylsulfonyl)morpholin-2-yl)methyl)-2-(trifluoromethyl)pyrimidin-4-amine] it is < 30000 µM.
Consider `CN(CC1CN(S(C)(=O)=O)CCCO1)c1cc(N2CCOC3(CCCCC3)C2)nc(C(F)(F)F)n1` (stereo not drawn) [Compound 31, N-methyl-N-((4-(methylsulfonyl)-1,4-oxazepan-2-yl)methyl)-6-(1-oxa-4-azaspiro[5.5]undecan-4-yl)-2-(trifluoromethyl)pyrimidin-4-amine], for which the minimal effective concentration is < 30000 µM.
The figure for `CN(CC1CN(S(=O)(=O)C2CC2)CCO1)c1cc(N2CCOC3(CCCCC3)C2)nc(C(F)(F)F)n1` (stereo not drawn) [Compound 32, N-((4-(cyclopropylsulfonyl)morpholin-2-yl)methyl)-N-methyl-6-(1-oxa-4-azaspiro[5.5]undecan-4-yl)-2-(trifluoromethyl)pyrimidin-4-amine] is < 10000 µM; for `CN(CC1CN(S(C)(=O)=O)CCO1)c1cc(N2CC3CCC(C2)O3)nc(C(F)(F)F)n1` (stereo not drawn) [Compound 17, 6-(8-oxa-3-azabicyclo[3.2.1]octan-3-yl)-N-methyl-N-((4-(methylsulfonyl)morpholin-2-yl)methyl)-2-(trifluoromethyl)pyrimidin-4-amine] it is > 100000 µM; for `CN(C[C@H]1CN(S(C)(=O)=O)CCO1)c1cc(N2CCCC3(CCCCC3)C2)nc(C(F)(F)F)n1` [Compound 1, (S)-N-methyl-N-((4-(methylsulfonyl)morpholin-2-yl)methyl)-6-(2-azaspiro[5.5]undecan-2-yl)-2-(trifluoromethyl)pyrimidin-4-amine] it is < 10000 µM.
For `CN(CC1CN(S(C)(=O)=O)CCCO1)c1cc(N2CCCC3(CCCCC3)C2)nc(C(F)(F)F)n1` (stereo not drawn) [Compound 35, N-methyl-N-((4-(methylsulfonyl)-1,4-oxazepan-2-yl)methyl)-6-(2-azaspiro[5.5]undecan-2-yl)-2-(trifluoromethyl)pyrimidin-4-amine] the value was < 10000 µM.
The figure for `CN(CC1CN(S(C)(=O)=O)CCC1(F)F)c1cc(N2CCCC3(CCCCC3)C2)nc(C(F)(F)F)n1` (stereo not drawn) [Compound 41, N-((4,4-difluoro-1-(methylsulfonyl)piperidin-3-yl)methyl)-N-methyl-6-(2-azaspiro[5.5]undecan-2-yl)-2-(trifluoromethyl)pyrimidin-4-amine] is < 30000 µM; for `CN(CC1CN(S(C)(=O)=O)CCS1(=O)=O)c1cc(N2CCOC3(CCCCC3)C2)nc(C(F)(F)F)n1` (stereo not drawn) [Compound 25, 2-(((6-(1-oxa-4-azaspiro[5.5]undecan-4-yl)-2-(trifluoromethyl)pyrimidin-4-yl)(methyl)amino)methyl)-4-(methylsulfonyl)thiomorpholine 1,1-dioxide] it is > 100000 µM; for `CN(CC1CN(S(C)(=O)=O)CCO1)c1cc(N2CCOC3(CCC(F)(F)CC3)C2)nc(C(F)(F)F)n1` (stereo not drawn) [Compound 21, 6-(9,9-difluoro-1-oxa-4-azaspiro[5.5]undecan-4-yl)-N-methyl-N-((4-(methylsulfonyl)morpholin-2-yl)methyl)-2-(trifluoromethyl)pyrimidin-4-amine] it is < 10000 µM.
On to `CN(CCOc1ccccc1)c1cc(N2CCCC3(CCCCC3)C2)nc(C(F)(F)F)n1` [Compound 8, N-methyl-N-(2-phenoxyethyl)-6-(2-azaspiro[5.5]undecan-2-yl)-2-(trifluoromethyl)pyrimidin-4-amine], for which the minimal effective concentration was > 100000 µM.
For `CN(C)CCN(CC1CN(S(C)(=O)=O)CCO1)c1cc(N2CCCC3(CCCCC3)C2)nc(C(F)(F)F)n1` (stereo not drawn) [Compound 39, N1-(6-(2-azaspiro[5.5]undecan-2-yl)-2-(trifluoromethyl)pyrimidin-4-yl)-N2,N2-dimethyl-N1-((4-(methylsulfonyl)morpholin-2-yl)methyl)ethane-1,2-diamine] the value was < 10000 µM; for `CN(CC1CN(S(C)(=O)=O)C1)c1cc(N2CCCC3(CCCCC3)C2)nc(C(F)(F)F)n1` [Compound 13, N-methyl-N-((1-(methylsulfonyl)azetidin-3-yl)methyl)-6-(2-azaspiro[5.5]undecan-2-yl)-2-(trifluoromethyl)pyrimidin-4-amine], < 10000 µM; for `CS(=O)(=O)N1CCOC(CN(Cc2ccccc2)c2cc(N3CCOC4(CCCCC4)C3)nc(C(F)(F)F)n2)C1` (stereo not drawn) [Compound 19, N-benzyl-N-((4-(methylsulfonyl)morpholin-2-yl)methyl)-6-(1-oxa-4-azaspiro[5.5]undecan-4-yl)-2-(trifluoromethyl)pyrimidin-4-amine], > 100000 µM.
As for `CN(CC1CN(S(C)(=O)=O)CCO1)c1cc(N2CCOC3(CCCC3)C2)nc(C(F)(F)F)n1` (stereo not drawn) [Compound 16, N-methyl-N-((4-(methylsulfonyl)morpholin-2-yl)methyl)-6-(6-oxa-9-azaspiro[4.5]decan-9-yl)-2-(trifluoromethyl)pyrimidin-4-amine], the minimal effective concentration was < 30000 µM.
The figure for `CN(CC1CCCN(S(C)(=O)=O)C1)c1cc(N2CCCC3(CCCCC3)C2)nc(C(F)(F)F)n1` (stereo not drawn) [Compound 14, N-methyl-N-((1-(methylsulfonyl)piperidin-3-yl)methyl)-6-(2-azaspiro[5.5]undecan-2-yl)-2-(trifluoromethyl)pyrimidin-4-amine] is > 100000 µM.
The figure for `CN(CC1CN(S(C)(=O)=O)CCO1)c1cc(N2CCOC3(CCCCC3)C2)nc(C(F)(F)F)n1` (racemic) [Compound 4, (R) and (S)-N-methyl-N-((4-(methylsulfonyl)morpholin-2-yl)methyl)-6-(1-oxa-4-azaspiro[5.5]undecan-4-yl)-2-(trifluoromethyl)pyrimidin-4-amine] is < 30000 µM; for `CN(CC1CN(S(C)(=O)=O)CCC1(F)F)c1cc(N2CCOC3(CCCCC3)C2)nc(C(F)(F)F)n1` (stereo not drawn) [Compound 24, N-((4,4-difluoro-1-(methylsulfonyl)piperidin-3-yl)methyl)-N-methyl-6-(1-oxa-4-azaspiro[5.5]undecan-4-yl)-2-(trifluoromethyl)pyrimidin-4-amine] it is < 10000 µM.
For `CN(CC1CCN(S(C)(=O)=O)C1)c1cc(N2CCCC3(CCCCC3)C2)nc(C(F)(F)F)n1` (stereo not drawn) [Compound 9, N-methyl-N-((1-(methylsulfonyl)pyrrolidin-3-yl)methyl)-6-(2-azaspiro[5.5]undecan-2-yl)-2-(trifluoromethyl)pyrimidin-4-amine] the value was < 30000 µM.

The values above are taken from patent US20260365642A1, “ANTIPARASITIC COMPOUNDS” (Animol Discovery, Inc., priority 2023, published 2026).
